{"source": "patent US20110195432A1", "about": "“METHODS FOR THE SELECTION OF THERAPEUTIC TREATMENTS FOR CANCER” (priority 2008, published 2011)", "key": {"[1]": {"tested_on": "AR", "assay": "Western blot of AR protein levels, VCaP cells", "format": "cell-based", "conditions": "24 hours", "text": "X-ray exposures were scanned as uncompressed images and bands were quantified by densitometry with Quantity One software (Bio-Rad, Hercules, Calif.). Intensity values were normalized to those of the endogenous controls. The vehicle sample was set to 1."}, "[2]": {"tested_on": "PSA ARE", "conditions": "LNCaP cells; 20 μM sulforaphane, 24 hours; versus vehicle-treated cells", "method": "To determine whether AR protein depletion from its target genes' androgen response elements (AREs) was responsible for reduced target gene expression, chromatin immunoprecipitation (ChIP) was performed. Cells were cross-linked with formaldehyde and reactions were stopped with glycine. Crosslinked cells were re-suspended in RIPA with SigmaFast protease inhibitors tablets (Sigma, St. Louis, Mo.) and sonicated on ice using a Branson Digital Sonifer model 450 (Branson Ultrasonics Co., Danbury, Conn.). Sonicated cellular lysates were used for Matrix ChIP (Flanagin et al., Nucleic Acids Res 36: e17, 2008) Immunoprecipitations were performed without adding an antibody or with 500 ng of an anti-AR antibody. PCR reactions were amplified using a thermocycler (see supplementary methods). ChIP PCR primer sequences were as follows:\nPrimers were synthesized by IDT (Coralville, Iowa). ChIP PCR program consisted of: 95° C. for 5 minutes for 1 cycle; 95° C. for 30 seconds, 58° C.(TMPRSS2-ERG) or 60° C. (PSA) for 30 seconds, and 72° C. for 30 seconds for 35-40 cycles; 72° C. final extension for 5 minutes. […] Bands were imaged for densitometry using a Gel Doc XR UV transilluminator and Quantity One software (Bio-Rad, Hercules, Calif.)."}, "[3]": {"tested_on": "HDAC6", "assay": "Western blot of HDAC6 protein levels, LNCaP cells", "format": "cell-based"}, "[4]": {"target": "T1, recombinant HDAC6 (Homo sapiens, UniProt Q9UBN7)", "T1 sequence (Q9UBN7 1-1215)": "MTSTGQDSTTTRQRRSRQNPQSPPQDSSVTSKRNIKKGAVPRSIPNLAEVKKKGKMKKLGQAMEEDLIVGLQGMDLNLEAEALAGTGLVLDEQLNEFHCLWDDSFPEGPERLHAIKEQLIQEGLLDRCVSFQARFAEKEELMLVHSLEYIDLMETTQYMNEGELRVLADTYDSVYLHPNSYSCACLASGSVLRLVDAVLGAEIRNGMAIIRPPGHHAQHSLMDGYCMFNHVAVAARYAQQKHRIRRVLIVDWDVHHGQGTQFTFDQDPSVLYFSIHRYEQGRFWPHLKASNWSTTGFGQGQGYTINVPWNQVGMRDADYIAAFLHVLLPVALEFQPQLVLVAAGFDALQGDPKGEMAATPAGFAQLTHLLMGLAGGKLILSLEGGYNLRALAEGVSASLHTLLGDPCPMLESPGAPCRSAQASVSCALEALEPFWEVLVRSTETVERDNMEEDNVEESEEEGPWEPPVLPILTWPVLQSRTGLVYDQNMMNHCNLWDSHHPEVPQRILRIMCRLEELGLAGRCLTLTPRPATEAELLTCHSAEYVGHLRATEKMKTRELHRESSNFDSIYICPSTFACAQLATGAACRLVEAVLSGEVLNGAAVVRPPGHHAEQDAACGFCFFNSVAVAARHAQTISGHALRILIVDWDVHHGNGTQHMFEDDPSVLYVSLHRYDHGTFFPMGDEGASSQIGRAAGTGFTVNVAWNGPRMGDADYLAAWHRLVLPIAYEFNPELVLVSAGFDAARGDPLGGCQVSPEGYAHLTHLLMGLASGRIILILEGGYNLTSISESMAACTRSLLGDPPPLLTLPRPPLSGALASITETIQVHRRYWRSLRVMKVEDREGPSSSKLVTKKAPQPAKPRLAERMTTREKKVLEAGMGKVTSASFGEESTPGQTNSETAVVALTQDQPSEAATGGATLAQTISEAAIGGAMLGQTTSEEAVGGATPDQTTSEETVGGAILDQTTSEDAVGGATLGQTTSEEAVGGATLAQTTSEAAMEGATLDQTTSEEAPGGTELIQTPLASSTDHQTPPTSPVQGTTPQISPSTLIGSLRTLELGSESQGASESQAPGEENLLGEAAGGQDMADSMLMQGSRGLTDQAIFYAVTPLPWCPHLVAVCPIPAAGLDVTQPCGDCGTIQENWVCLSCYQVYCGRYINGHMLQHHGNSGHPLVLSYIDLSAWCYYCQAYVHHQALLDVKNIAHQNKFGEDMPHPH", "conditions": "cell-free; 7.5 or 15 μM sulforaphane, or 400 nM TSA; versus vehicle-treated HDAC6 control"}}, "note": "Entries after “also recorded” stand apart in the source; their conditions may differ."}
{"smiles": "C[S+]([O-])CCCCN=C=S", "note": "(stereo not drawn) [sulforaphane, 1-Isothiocyanato-4-methylsulfinylbutane]", "values": [{"measurement": "levels of AR protein in whole cell lysates", "setting": "[1]; 20 μM sulforaphane, treated in parallel with ChIP", "result": "near absent levels"}, {"measurement": "AR protein levels", "setting": "[1]; all sulforaphane dose levels", "result": "declined"}, {"measurement": "enrichment of AR at the PSA ARE", "setting": "[2]", "result": "reduced enrichment"}, {"measurement": "HDAC6 protein levels at later time points", "setting": "[3]; 16 hours", "result": "reduced HDAC6 protein levels"}, {"measurement": "HDAC6 protein expression in HDAC6-over-expressing cells", "setting": "[3]; FLAG-HDAC6 transfected LNCaP cells, sulforaphane-treated, versus empty-vector, sulforaphane-treated cells", "result": "restored"}, {"measurement": "HDAC6 protein levels with concomitant proteasome inhibitor", "setting": "[3]; LNCaP cells, 16 hours, 20 μM sulforaphane with 20 μM MG132 versus sulforaphane-treated cells", "result": "restored HDAC6 protein levels"}, {"measurement": "levels of HDAC6 in input whole cell lysate", "setting": "[3]; LNCaP cells, early time point, 4 hours, versus vehicle", "result": "similar; also recorded: without changing its levels"}, {"measurement": "HDAC6 protein levels", "setting": "[3]; empty-vector transfected LNCaP cells, 16-hour treatment with 15 nM sulforaphane versus vehicle", "result": "reduced"}, {"measurement": "HDAC6 deacetylase activity on tubulin", "setting": "[4]", "result": "decreased HDAC6 deacetylase activity; also recorded: inhibited HDAC6 deacetylase activity"}]}
